Results published in ChEMBL document CHEMBL1155795, “Revisiting the sponge sources, stereostructure, and biological activity of cyclocinamide a” (J Nat Prod, 2008).
Starred links: 1 amine or outer side, 2 acyl side, 3 side chain; linkers in the order of their positions; H or OH if unused. Positions of bridges follow the written chain, without caps; N, C: chain ends. Non-standard residues stand in square brackets, D forms with d. Residues, ends and D or L forms follow the SMILES beside them. *: point of attachment. Trp(5-Br) = N[C@@H](Cc1c[nH]c2ccc(Br)cc12)C(=O)O; isoSer(2S) = O=C([C@@H](O)CN[*:1])[*:2]; X1 = Cn1cc(Cl)cc1C(=O)*; Dap = NC[C@H](N)C(=O)O

How the values were obtained:
[1] = Cytotoxicity against human […] cells assessed as zone of inhibition at 90 ug/disk by disk diffusion soft agar colony forming assay; format: functional; settings: read-out: IZ
[2] = Cytotoxicity against mouse CFU-GM cells assessed as zone of inhibition at 90 ug/disk by disk diffusion soft agar colony forming assay; format: functional; settings: read-out: IZ
[3] = tested on: HCT-116; assay: Cytotoxicity against human HCT116 cells; format: functional, cell-based

With `Cn1cc(Cl)cc1C(=O)NCC(=O)N[C@H]1CNC(=O)[C@H](Cc2c[nH]c3ccc(Br)cc23)NC(=O)[C@@H](O)CNC(=O)[C@H](CC(N)=O)NC1=O` (X1-G[Dap]N[isoSer(2S)][Trp(5-Br)]; lactam 2-C) the zone of inhibition at 90 µg/disc [1] was 26 mm, the zone of inhibition at 90 µg/disc [2] was 16 mm and the IC50 [3] was > 10 µg/mL.
